2 compounds from patent publication US20250271426A1, “REDUCTION OF BITTER TASTE OF ACTIVE PHARMACEUTICAL INGREDIENTS AND RELATED ASSAYS AND SCREENING METHODS” (Firmenich Incorporated, priority 2022, published 2025) can be followed below.

Experiment in all cases: FLIPR calcium assay, cells with promiscuous G protein transfected with bitter receptor cDNA
What all share (assay type): cell-based
Common to all, as to conditions: responsive if cellular response of >10% over baseline, Fluo4-AM

Test [1] has as its target T1, T2R receptor SEQ ID NO: 5 (S5) (Homo sapiens, UniProt P59534).
T1 construct: expressed in transfected cells; host or cells: cells expressing a promiscuous G protein (e.g., G16g44)
T1 sequence (P59534 18-338): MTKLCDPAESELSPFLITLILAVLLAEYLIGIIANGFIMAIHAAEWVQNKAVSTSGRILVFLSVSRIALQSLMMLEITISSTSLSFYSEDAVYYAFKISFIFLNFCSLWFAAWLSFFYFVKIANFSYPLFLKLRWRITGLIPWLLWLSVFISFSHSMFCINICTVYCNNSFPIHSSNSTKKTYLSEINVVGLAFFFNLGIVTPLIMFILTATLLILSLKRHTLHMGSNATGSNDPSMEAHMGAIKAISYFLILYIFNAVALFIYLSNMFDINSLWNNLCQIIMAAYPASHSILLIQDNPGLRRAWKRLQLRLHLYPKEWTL
A digest of the protocol:
(§1)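 Cells carrying promiscuous G protein G16g44 were transfected with a single bitter receptor cDNA each, cultured 28 hours, then loaded with Fluo4-AM for 60 minutes. After washing, agonist addition and intracellular fluorescence were recorded together by FLIPR. A receptor counted as responsive at >10% over baseline.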

Test [2] concerns the target T2, T2R receptor SEQ ID NO: 1 (S1) (Homo sapiens, UniProt Q9NYW7).
T2 construct: expressed in transfected cells; host or cells: cells expressing a promiscuous G protein (e.g., G16g44)
T2 sequence (Q9NYW7 1-299): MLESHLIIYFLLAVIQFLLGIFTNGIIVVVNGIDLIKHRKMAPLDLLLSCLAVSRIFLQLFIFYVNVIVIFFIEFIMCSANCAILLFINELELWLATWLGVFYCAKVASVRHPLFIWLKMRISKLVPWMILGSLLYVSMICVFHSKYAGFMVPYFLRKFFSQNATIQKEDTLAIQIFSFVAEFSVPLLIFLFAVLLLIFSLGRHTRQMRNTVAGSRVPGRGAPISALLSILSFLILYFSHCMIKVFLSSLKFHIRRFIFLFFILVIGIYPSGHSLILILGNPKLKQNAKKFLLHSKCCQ
A digest of the protocol: as §1

For test [3], the target named is T3, T2R receptor SEQ ID NO: 4 (S4) (Homo sapiens, UniProt Q9NYV8).
T3 construct: expressed in transfected cells; host or cells: cells expressing a promiscuous G protein (e.g., G16g44)
T3 sequence (Q9NYV8 1-317): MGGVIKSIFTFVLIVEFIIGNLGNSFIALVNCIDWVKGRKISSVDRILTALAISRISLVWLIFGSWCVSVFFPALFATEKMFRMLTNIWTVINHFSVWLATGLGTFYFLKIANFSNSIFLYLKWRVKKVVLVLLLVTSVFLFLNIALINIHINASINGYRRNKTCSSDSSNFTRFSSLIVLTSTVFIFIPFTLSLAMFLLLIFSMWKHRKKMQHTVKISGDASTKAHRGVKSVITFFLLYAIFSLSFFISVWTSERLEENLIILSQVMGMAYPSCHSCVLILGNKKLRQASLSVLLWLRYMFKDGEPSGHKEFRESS
The method in brief: as §1

Test [4] addresses T4, T2R receptor SEQ ID NO: 6 (S6) (Homo sapiens, UniProt P59540).
T4 construct: expressed in transfected cells; host or cells: cells expressing a promiscuous G protein (e.g., G16g44)
T4 sequence (P59540 1-309): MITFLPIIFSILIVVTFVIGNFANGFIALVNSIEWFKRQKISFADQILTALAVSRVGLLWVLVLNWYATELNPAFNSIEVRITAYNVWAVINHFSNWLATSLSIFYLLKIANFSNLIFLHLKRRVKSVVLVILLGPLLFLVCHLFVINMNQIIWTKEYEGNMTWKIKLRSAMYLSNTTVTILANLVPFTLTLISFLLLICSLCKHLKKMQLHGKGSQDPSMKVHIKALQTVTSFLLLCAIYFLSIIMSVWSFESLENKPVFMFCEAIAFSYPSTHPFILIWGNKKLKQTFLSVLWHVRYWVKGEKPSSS
A digest of the protocol: as §1

For test [5], the target named is T5, T2R receptor SEQ ID NO: 2 (S2) (Homo sapiens, UniProt Q9NYW2).
T5 construct: expressed in transfected cells; host or cells: cells expressing a promiscuous G protein (e.g., G16g44)
T5 sequence (Q9NYW2 1-309): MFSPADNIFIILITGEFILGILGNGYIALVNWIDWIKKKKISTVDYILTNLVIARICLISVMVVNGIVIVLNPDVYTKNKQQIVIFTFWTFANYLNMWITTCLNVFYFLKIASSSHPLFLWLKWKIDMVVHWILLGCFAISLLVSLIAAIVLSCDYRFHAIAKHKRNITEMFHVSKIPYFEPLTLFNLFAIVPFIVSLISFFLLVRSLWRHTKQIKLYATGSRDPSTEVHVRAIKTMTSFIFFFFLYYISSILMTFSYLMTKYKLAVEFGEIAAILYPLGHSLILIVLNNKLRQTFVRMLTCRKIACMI
The method in brief:
as §1

In test [6] the target is T6, T2R receptor SEQ ID NO: 3 (S3) (Homo sapiens, UniProt Q9NYW0, T156M).
T6 construct: expressed in transfected cells; host or cells: cells expressing a promiscuous G protein (e.g., G16g44)
T6 sequence (Q9NYW0 1-307 T156M): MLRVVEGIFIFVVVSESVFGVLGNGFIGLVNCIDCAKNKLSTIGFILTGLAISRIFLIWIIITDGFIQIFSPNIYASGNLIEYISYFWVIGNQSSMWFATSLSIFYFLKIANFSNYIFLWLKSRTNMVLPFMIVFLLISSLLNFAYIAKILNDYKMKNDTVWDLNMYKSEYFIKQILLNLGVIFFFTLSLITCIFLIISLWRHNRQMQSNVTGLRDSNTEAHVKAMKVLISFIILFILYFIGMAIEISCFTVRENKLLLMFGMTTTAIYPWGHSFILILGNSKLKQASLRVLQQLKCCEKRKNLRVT
A digest of the protocol: as §1

Structures are written as SMILES.

Regarding `CCN(CC)CCCC(C)Nc1ccnc2cc(Cl)ccc12` (stereo not drawn) [Chloroquine], in test [1], the “S5 positive response of T2R receptor to API” value is “+ (a “+” to indicate whether a particular T2R receptor showed a positive response to a particular API)”. Moreover, the “S1 positive response of T2R receptor to API” value in test [2] is reported as “+ (a “+” to indicate whether a particular T2R receptor showed a positive response to a particular API)”. Moreover, the “S4 positive response of T2R receptor to API” value in test [3] was “+ (a “+” to indicate whether a particular T2R receptor showed a positive response to a particular API)”. In addition, the “S6 positive response of T2R receptor to API” value in test [4] was “+ (a “+” to indicate whether a particular T2R receptor showed a positive response to a particular API)”. In addition, in test [5], the “S2 positive response of T2R receptor to API” value is “+ (a “+” to indicate whether a particular T2R receptor showed a positive response to a particular API)”. In test [6], the “S3 positive response of T2R receptor to API” value is “+ (a “+” to indicate whether a particular T2R receptor showed a positive response to a particular API)”.
Consider `CN(C)CCC=C1c2ccccc2COc2ccccc21` [Doxepin], for which the “S5 positive response of T2R receptor to API” value in test [1] is “+ (a “+” to indicate whether a particular T2R receptor showed a positive response to a particular API)”. Besides, the “S1 positive response of T2R receptor to API” value in test [2] is recorded as “+ (a “+” to indicate whether a particular T2R receptor showed a positive response to a particular API)”. Moreover, the “S4 positive response of T2R receptor to API” value in test [3] was “+ (a “+” to indicate whether a particular T2R receptor showed a positive response to a particular API)”. Moreover, the “S6 positive response of T2R receptor to API” value in test [4] is reported as “+ (a “+” to indicate whether a particular T2R receptor showed a positive response to a particular API)”. The “S2 positive response of T2R receptor to API” value in test [5] was “+ (a “+” to indicate whether a particular T2R receptor showed a positive response to a particular API)”. For the same compound, in test [6], the “S3 positive response of T2R receptor to API” value is “+ (a “+” to indicate whether a particular T2R receptor showed a positive response to a particular API)”.
